The record followed here is US20070122451A1, “Biogically non-degradable peptides, angiostensin converting enzyme inhibitor, drug and functional food” (Calpis Co., Ltd., priority 2003, published 2007).

Peptide text beside a SMILES is read from it.

This test concerns the target T1, ACE derived from bovine lung (Bos taurus, UniProt P12820).
T1 construct: ACE derived from bovine lung; host or cells: bovine lung tissue
T1 sequence (P12820 29-1306): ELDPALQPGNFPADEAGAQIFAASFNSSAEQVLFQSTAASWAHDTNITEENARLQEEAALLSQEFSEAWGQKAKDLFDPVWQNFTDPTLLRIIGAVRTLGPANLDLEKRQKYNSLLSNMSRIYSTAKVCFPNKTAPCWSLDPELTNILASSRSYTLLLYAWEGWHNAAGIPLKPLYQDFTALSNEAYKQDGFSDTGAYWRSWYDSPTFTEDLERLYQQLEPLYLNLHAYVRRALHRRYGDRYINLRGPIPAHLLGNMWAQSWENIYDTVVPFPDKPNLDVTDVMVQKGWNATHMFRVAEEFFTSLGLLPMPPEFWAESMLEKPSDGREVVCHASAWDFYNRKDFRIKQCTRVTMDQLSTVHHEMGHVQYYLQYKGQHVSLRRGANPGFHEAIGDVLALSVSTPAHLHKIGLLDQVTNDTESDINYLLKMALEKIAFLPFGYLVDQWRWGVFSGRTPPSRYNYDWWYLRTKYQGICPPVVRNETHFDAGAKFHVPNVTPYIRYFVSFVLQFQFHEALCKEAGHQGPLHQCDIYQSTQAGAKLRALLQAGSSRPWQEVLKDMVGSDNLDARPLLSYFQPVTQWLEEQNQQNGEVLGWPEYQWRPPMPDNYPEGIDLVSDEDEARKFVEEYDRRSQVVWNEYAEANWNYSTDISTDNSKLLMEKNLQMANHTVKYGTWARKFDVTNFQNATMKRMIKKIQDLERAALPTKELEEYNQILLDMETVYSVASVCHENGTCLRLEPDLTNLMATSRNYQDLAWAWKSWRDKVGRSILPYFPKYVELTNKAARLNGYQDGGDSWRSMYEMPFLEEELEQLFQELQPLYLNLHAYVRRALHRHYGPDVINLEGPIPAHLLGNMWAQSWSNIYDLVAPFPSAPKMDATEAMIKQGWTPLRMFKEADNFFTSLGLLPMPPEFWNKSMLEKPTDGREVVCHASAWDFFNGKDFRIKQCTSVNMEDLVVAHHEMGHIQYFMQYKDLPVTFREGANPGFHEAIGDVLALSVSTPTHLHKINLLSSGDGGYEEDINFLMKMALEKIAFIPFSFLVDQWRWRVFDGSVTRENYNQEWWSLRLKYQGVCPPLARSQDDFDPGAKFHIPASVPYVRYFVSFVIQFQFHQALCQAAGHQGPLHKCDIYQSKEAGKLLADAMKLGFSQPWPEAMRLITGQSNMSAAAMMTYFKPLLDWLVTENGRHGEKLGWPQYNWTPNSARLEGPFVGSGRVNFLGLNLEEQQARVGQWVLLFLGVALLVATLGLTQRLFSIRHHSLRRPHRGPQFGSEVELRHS
Description: Evaluation of ACE inhibitory activity (hippuryl-histidyl-leucine substrate, absorbance at 228 nm). In kind it is biochemical. Particulars: peptide concentration at which ACE inhibitory effect was 50%; 37° C., 30 minutes, pH 8.3 borate buffer. Here is the method:
Solutions of each of these peptides at various concentrations were prepared, and measured for the ACE inhibitory activity in accordance with the method discussed below. The peptide concentration (μM) at which the ACE inhibitory effect was 50% was taken as IC50 value.
<Evaluation of ACE Inhibitory Activity>
ACE derived from bovine lung (manufactured by WAKO PURE CHEMICAL […], LTD.) was dissolved in a 0.1M borate buffer at pH 8.3 in an amount of 0.1 U, to obtain an ACE solution. […] Subsequently, the reaction was terminated by adding 250 μl of 1N hydrochloric acid (manufactured by WAKO PURE CHEMICAL […], LTD.). 1.7 ml of ethyl acetate (manufactured by WAKO PURE CHEMICAL […], LTD.) was then added, and stirred. 1.4 ml of the ethyl acetate layer was taken, placed in another tube, and evaporated at 120° C. for about 60 minutes to obtain a dried product. The dried product was dissolved in 1 ml of distilled water, and the absorbance at 228 nm of hippuric acid extracted with ethyl acetate was measured. As controls, absorbance was measured of a solution without the diluted solution and a solution without the diluted solution and the ACE solution. From the obtained absorbance, ACE inhibitory activity was calculated in accordance with the following formula. ACE inhibitory activity (%)=[(A−B)/A]×100 • A: (Absorbance of solution without diluted solution but with ACE solution)—(Absorbance of solution without diluted solution and ACE solution)
B: (Absorbance of solution with diluted solution and ACE solution)—(Absorbance of solution with diluted solution but without ACE solution)
As for `CC[C@H](C)[C@H](N)C(=O)N1CCC[C@H]1C(=O)O` [Ile-Pro] (H-Ile-Pro-OH; N-terminus and C-terminus assumed), the IC50 turned out to be 444 µM.

`CSCC[C@H](N)C(=O)N1CCC[C@H]1C(=O)O` [Met-Pro] (H-Met-Pro-OH; N-terminus and C-terminus assumed): the IC50 came out at 135 µM. Turning to `NC(=O)CC[C@H](N)C(=O)N1CCC[C@H]1C(=O)O` [Gln-Pro] (H-Gln-Pro-OH), 65.8 µM corresponded to half-maximal inhibition (IC50).

In turn, `NC(N)=NCCC[C@H](N)C(=O)N1CCC[C@H]1C(=O)O` [Arg-Pro] (H-Arg-Pro-OH) came in with an IC50 of 275 µM. For the molecule `N[C@@H](CCC(=O)O)C(=O)N1CCC[C@H]1C(=O)O` [Glu-Pro] (H-Glu-Pro-OH; N-terminus and C-terminus assumed), inhibition was half-maximal at 175 µM (IC50).
